Results: the NIST ThermoML archive (doi:10.1016/j.jct.2018.08.035)
± gives the expanded uncertainty stated by the source.

Assay: xn = mol fraction of the nth substance listed
Conditions: 100 kPa, Liquid, Vibrating tube method

CCC(O)CC [3-pentanol] + C[N+](=O)[O-]
Conditions	mass density [kg/m3]
290.86 K, x1 = 0.414	977.244 ± 2
290.86 K, x1 = 0.615	890.972 ± 1.9
290.95 K, x1 = 0.246	1006.81 ± 2.2
290.95 K, x1 = 0.266	998.292 ± 2.2
290.95 K, x1 = 0.275	994.793 ± 2.2
290.95 K, x1 = 0.3	988.13 ± 2
290.95 K, x1 = 0.325	987.695 ± 2
290.95 K, x1 = 0.338	986.437 ± 2
290.95 K, x1 = 0.363	982.374 ± 2
290.95 K, x1 = 0.382	980.189 ± 2
290.95 K, x1 = 0.407	976.76 ± 2
290.95 K, x1 = 0.414	976.042 ± 2
290.95 K, x1 = 0.486	956.644 ± 2.1
290.95 K, x1 = 0.488	952.742 ± 2.3
290.95 K, x1 = 0.546	927.124 ± 2.2
290.95 K, x1 = 0.573	908.776 ± 2.5
290.95 K, x1 = 0.587	897.749 ± 1.9
290.95 K, x1 = 0.615	890.865 ± 1.9
291.05 K, x1 = 0.246	1006.69 ± 2.2
291.05 K, x1 = 0.275	994.663 ± 2.2
291.05 K, x1 = 0.382	978.765 ± 2
291.05 K, x1 = 0.407	975.346 ± 2
291.05 K, x1 = 0.414	974.647 ± 2
291.05 K, x1 = 0.486	954.019 ± 2.2
291.05 K, x1 = 0.488	945.483 ± 2.1
291.05 K, x1 = 0.573	903.111 ± 2.7
291.06 K, x1 = 0.266	998.167 ± 2.2
291.06 K, x1 = 0.3	986.306 ± 2
291.06 K, x1 = 0.325	985.699 ± 2
291.06 K, x1 = 0.338	984.897 ± 2
291.06 K, x1 = 0.363	981.518 ± 2
291.06 K, x1 = 0.546	924.902 ± 2.2
291.06 K, x1 = 0.587	897.593 ± 1.9
291.06 K, x1 = 0.615	890.758 ± 1.9
291.15 K, x1 = 0.246	1006.56 ± 2.2
291.15 K, x1 = 0.266	998.042 ± 2.2
291.15 K, x1 = 0.275	994.538 ± 2.2
291.15 K, x1 = 0.3	985.201 ± 2.1
291.15 K, x1 = 0.325	983.513 ± 2.1
291.15 K, x1 = 0.338	982.822 ± 2.1
291.15 K, x1 = 0.382	977.024 ± 2
291.15 K, x1 = 0.407	973.664 ± 2
291.15 K, x1 = 0.414	973.001 ± 2
291.15 K, x1 = 0.486	951.113 ± 2.2
291.15 K, x1 = 0.488	947.64 ± 2.1
291.15 K, x1 = 0.573	901.117 ± 1.9
291.15 K, x1 = 0.615	890.652 ± 1.9
291.15 K, x1 = 0.629	887.189 ± 1.9
291.16 K, x1 = 0.363	980.295 ± 2
291.16 K, x1 = 0.546	921.069 ± 2.2
291.16 K, x1 = 0.587	897.497 ± 1.9
291.25 K, x1 = 0.246	1006.44 ± 2.2
291.25 K, x1 = 0.266	997.918 ± 2.2
291.25 K, x1 = 0.275	994.413 ± 2.2
291.25 K, x1 = 0.3	985.014 ± 2.1
291.25 K, x1 = 0.325	980.203 ± 2.1
291.25 K, x1 = 0.338	980.22 ± 2.1
291.25 K, x1 = 0.382	974.837 ± 2.1
291.25 K, x1 = 0.407	971.578 ± 2
291.25 K, x1 = 0.414	970.955 ± 2
291.25 K, x1 = 0.486	947.303 ± 2.3
291.25 K, x1 = 0.488	944.104 ± 2.2
291.25 K, x1 = 0.573	901.031 ± 1.9
291.25 K, x1 = 0.587	897.388 ± 1.9
291.25 K, x1 = 0.615	890.547 ± 1.9
291.26 K, x1 = 0.363	978.023 ± 2
291.26 K, x1 = 0.546	917.045 ± 2.4
291.35 K, x1 = 0.246	1006.32 ± 2.2
291.35 K, x1 = 0.275	994.289 ± 2.2
291.35 K, x1 = 0.382	972.169 ± 2.1
291.35 K, x1 = 0.407	969.156 ± 2.1
291.35 K, x1 = 0.414	968.504 ± 2.1
291.35 K, x1 = 0.486	943.014 ± 2.3
291.35 K, x1 = 0.488	939.641 ± 2.3
291.35 K, x1 = 0.573	900.922 ± 1.9
291.36 K, x1 = 0.266	997.796 ± 2.2
291.36 K, x1 = 0.3	984.888 ± 2.1
291.36 K, x1 = 0.325	976.768 ± 2.1
